The source made the active and inactive calls.
Assays:
Mucolipin-3 = molecular target: T1, Mucolipin-3 (Homo sapiens, UniProt Q8TDD5); assay: Fluorescence counterscreen assay for […] agonists: dose response cell-based high-throughput screening assay to identify agonists of the transient receptor potential channel ML3 (TRPML3). [Related pubchem assays: 1424, 1448 ]; format: functional
T1 sequence (Q8TDD5 whole entry): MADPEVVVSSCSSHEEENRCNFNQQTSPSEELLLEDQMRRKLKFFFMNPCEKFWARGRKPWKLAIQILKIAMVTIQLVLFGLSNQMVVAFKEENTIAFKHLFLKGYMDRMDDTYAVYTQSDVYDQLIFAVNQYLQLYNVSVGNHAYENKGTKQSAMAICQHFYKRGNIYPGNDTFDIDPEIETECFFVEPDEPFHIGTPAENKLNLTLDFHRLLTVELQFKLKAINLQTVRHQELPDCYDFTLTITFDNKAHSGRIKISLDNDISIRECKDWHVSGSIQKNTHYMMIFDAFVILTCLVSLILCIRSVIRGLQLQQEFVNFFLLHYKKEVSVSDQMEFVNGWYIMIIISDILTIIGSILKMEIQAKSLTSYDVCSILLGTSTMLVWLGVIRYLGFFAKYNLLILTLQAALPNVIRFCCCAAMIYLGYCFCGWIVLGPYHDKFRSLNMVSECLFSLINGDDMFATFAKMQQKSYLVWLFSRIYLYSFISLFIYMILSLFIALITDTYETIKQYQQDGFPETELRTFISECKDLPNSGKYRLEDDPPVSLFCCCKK

Ion channel NompC = Ion channel NompC (Danio rerio, UniProt Q7T1G6); assay: Dose response cell-based high-throughput screening assay for agonists of the transient receptor potential channel N1 (TRPN1). [Related pubchem assays (depositor defined):AID1424, AID1448]; format: functional
[1] = molecular target: T2, Runt-related transcription factor 1/Core-binding factor subunit beta (Homo sapiens, UniProt Q01196+Q13951); assay: disruptors of Runt domain/CBFb-SMMHC interaction – biochemical, FRET, Cerulean-Runt, Venus-CBFb-SMMHC, uHTS, […] (AID 1434); format: protein assay
[2] = molecular target: T2, Runt-related transcription factor 1/Core-binding factor subunit beta; assay: Runt domain/CBFb-SMMHC interaction disruptors – biochemical, TR-FRET (AID 1438); format: protein assay
BJ [3] = assay: cells; format: functional, cell-based; conditions: Homo sapiens
[4] = viability of PTEN-deleted HCT116 cells – cell-based, HCT116 PTEN knockout, dose response (AID 1047); format: functional;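 note: HCT116 colon tumor cells with PTEN knocked out; cells exposed to compound for 60 hours before readout; potency for loss of cell viability measured by luminescence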
[5] = DRD fibroblast viability loss – cell-based, non-viral oncogenic, luminescence, dose response (AID 1934); format: functional; conditions: Homo sapiens
[6] = molecular target: T3, Replicative DNA helicase DnaB (Mycobacterium tuberculosis, UniProt P9WMR3); assay: DnaB intein splicing inhibitors, dose response, biochemical, cell-free fluorescence (AID 449749); format: functional
T3 sequence (P9WMR3 whole entry): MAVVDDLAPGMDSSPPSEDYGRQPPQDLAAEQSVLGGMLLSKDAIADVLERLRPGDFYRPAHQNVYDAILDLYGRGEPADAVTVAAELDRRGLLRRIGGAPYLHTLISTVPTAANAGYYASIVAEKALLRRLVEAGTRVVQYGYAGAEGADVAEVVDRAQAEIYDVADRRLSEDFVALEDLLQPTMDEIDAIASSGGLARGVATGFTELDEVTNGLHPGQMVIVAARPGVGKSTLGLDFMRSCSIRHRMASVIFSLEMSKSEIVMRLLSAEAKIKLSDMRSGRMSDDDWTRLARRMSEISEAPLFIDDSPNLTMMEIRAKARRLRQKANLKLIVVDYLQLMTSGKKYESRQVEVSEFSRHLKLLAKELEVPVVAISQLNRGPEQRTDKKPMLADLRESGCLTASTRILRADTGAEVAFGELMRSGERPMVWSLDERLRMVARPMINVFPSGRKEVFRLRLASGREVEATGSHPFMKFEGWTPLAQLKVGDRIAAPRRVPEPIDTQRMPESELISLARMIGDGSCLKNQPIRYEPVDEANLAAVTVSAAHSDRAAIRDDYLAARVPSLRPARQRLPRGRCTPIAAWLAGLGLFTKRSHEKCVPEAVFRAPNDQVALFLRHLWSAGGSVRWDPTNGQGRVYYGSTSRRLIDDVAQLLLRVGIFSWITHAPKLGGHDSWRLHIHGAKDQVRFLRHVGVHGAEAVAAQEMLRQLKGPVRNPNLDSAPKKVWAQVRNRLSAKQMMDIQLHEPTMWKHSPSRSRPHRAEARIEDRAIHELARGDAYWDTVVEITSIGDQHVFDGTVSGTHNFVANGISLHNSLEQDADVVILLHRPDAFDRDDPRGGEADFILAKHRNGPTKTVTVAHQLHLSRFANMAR

[7] = viability of HCT116 lacking mutant beta-catenin – cell-based, human colon tumor, dose response (AID 1045); format: functional;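 note: HCT116 colon tumor cells with beta catenin knocked out; cells exposed to compound for 60 hours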
BJ [8] = assay: BJ-TERT fibroblast viability loss – cell-based, RAS-independent, luminescence, dose response (AID 1933); format: functional; conditions: Homo sapiens
CAAX prenyl protease 2 = CAAX prenyl protease 2 (Saccharomyces cerevisiae S288c, UniProt Q03530); format: biochemical
BJ [9] = assay: BJ-TERT-LT-ST fibroblast viability loss – cell-based, RAS-independent, luminescence, dose response (AID 1935); format: functional; conditions: Homo sapiens;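 note: BJ fibroblasts immortalized with TERT plus LT and ST oncogenes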
Protein RecA = molecular target: T4, Protein RecA (Mycobacterium tuberculosis, UniProt P9WHJ3); assay: Fluorescence Cell-Free Homogeneous Dose Retest to Identify Inhibitors of RecA-Intein Splicing Activity. [Related pubchem assays (depositor defined):AID2097, AID2223, AID489010, AID492950]; format: functional
T4 sequence (P9WHJ3 whole entry): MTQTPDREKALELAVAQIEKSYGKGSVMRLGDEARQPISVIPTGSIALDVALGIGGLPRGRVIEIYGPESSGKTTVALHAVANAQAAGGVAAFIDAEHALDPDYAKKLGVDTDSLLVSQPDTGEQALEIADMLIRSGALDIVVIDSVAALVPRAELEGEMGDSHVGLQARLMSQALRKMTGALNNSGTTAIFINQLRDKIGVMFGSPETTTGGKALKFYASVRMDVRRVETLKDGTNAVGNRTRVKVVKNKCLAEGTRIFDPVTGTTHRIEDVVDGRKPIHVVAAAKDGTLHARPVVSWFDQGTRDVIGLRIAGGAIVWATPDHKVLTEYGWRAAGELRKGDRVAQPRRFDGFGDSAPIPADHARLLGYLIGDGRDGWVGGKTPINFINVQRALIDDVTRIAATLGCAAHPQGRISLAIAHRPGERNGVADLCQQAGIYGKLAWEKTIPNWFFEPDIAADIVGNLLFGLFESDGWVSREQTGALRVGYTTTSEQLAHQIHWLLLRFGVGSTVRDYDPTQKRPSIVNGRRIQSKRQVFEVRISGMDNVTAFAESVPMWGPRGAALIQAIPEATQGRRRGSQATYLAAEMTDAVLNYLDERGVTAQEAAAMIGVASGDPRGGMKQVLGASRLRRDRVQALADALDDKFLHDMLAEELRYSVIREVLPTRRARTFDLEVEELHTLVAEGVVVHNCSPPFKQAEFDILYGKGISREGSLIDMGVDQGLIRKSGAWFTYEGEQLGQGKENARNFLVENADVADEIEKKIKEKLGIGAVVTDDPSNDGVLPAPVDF

[10] = viability of uninfected HEp-2 cells – cell-based, HTS, cytotoxicity control for RSV inhibitor project, dose response (AID 2410); format: functional; conditions: human respiratory syncytial virus
[11] = molecular target: T5, Sphingosine 1-phosphate receptor 4 (Homo sapiens, UniProt O95977); assay: Fluorescence dose response cell-based high throughput screening assay for agonists of the Sphingosine 1-Phosphate Receptor 4 (S1P4). [Related pubchem assays: 1509 (Primary screen.), 1523 (Confirmation screen in triplicates.)]; format: functional
T5 sequence (O95977 whole entry): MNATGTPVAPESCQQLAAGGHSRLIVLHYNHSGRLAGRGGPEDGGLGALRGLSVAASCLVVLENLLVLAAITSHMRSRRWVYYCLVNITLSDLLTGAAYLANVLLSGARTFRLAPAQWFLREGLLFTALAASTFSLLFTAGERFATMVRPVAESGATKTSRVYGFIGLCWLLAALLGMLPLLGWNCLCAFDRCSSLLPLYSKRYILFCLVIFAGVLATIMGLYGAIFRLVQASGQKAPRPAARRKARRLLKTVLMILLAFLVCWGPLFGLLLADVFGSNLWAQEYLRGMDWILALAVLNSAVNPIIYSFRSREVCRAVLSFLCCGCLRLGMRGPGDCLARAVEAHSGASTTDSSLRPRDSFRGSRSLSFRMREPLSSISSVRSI

[12] = molecular target: Sphingosine 1-phosphate receptor 1 (Homo sapiens, UniProt P21453); assay: Fluorescence-based counterscreen assay for S1P4 agonists: Cell-based dose response high throughput screening assay to identify agonists of the Sphingosine 1-Phosphate Receptor 1 (S1P1). [Related pubchem assays (depositor defined):AID1509, AID1523, AID1801, AID463107, AID463118, AID463119, AID463122, AID463123, AID463129, AID463225, AID504400, AID504460]; format: functional
[13] = molecular target: Signal transducer and activator of transcription 1-alpha/beta (Homo sapiens, UniProt P42224); assay: STAT3 blockade with qPCR and toxicity readouts – cell-based, STAT1 panel, cytotoxicity, late-stage follow-up, panel member STAT1 Inhibition (AID 2078)
[14] = molecular target: Signal transducer and activator of transcription 3 (Homo sapiens, UniProt P40763); assay: STAT3 blockade with qPCR and toxicity readouts – cell-based, STAT1 panel, cytotoxicity, late-stage follow-up, panel member STAT3 Inhibition (AID 2078)
[15] = molecular target: T5, Sphingosine 1-phosphate receptor 4; assay: Late-stage fluorescence dose response cell-based assay to identify agonists of the Sphingosine 1-Phosphate Receptor 4 (S1P4): purchased compounds EC50. [Related pubchem assays (depositor defined):AID1509, AID1523, AID1563, AID1686, AID1701, AID1801]; format: functional
Cannabinoid receptor 2 [16] = molecular target: T6, Cannabinoid receptor 2 (Homo sapiens, UniProt P34972); assay: SAR analysis of antagonists of the Cannabinoid Receptor 2 using an Image-Based Assay - Set 3. [Related pubchem assays (depositor defined):AID2013, AID2026]; format: functional
[17] = molecular target: T7, G-protein coupled receptor 35 (Homo sapiens, UniProt Q9HC97); assay: SAR analysis of Agonists of the GPR35 Receptor using an Image-Based Assay - Set 4. [Related pubchem assays (depositor defined):AID2013, AID2026]; format: functional
Cannabinoid receptor 2 [18] = molecular target: T6, Cannabinoid receptor 2; assay: SAR analysis of agonists of the Cannabinoid Receptor 2 using an Image-Based Assay - Set 3. [Related pubchem assays (depositor defined):AID2013, AID2026]; format: functional
[19] = molecular target: T7, G-protein coupled receptor 35; assay: SAR analysis of Antagonists of the GPR35 Receptor using an Image-Based Assay - Set 6. [Related pubchem assays (depositor defined):AID2013, AID2026]; format: functional
[20] = molecular target: G-protein coupled receptor 55 (Homo sapiens, UniProt Q9Y2T6); assay: SAR Analysis of Selective Antagonists of GPR55 using an Image-Based Assay - Set 4. [Related pubchem assays (depositor defined):AID2013, AID2026]; format: functional;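 note: antagonism of response to 5 µM lysophosphatidylinositol agonist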
Cannabinoid receptor 1 [21] = molecular target: T8, Cannabinoid receptor 1 (Homo sapiens, UniProt P21554); assay: SAR analysis of antagonists of the Cannabinoid Receptor 1 using an Image-Based Assay - Set 4. [Related pubchem assays (depositor defined):AID2013, AID2026]; format: functional
Cannabinoid receptor 1 [22] = molecular target: T8, Cannabinoid receptor 1; assay: SAR analysis of agonists of the Cannabinoid Receptor 1 using an Image-Based Assay - Set 4. [Related pubchem assays (depositor defined):AID2013, AID2026]; format: functional
Hexokinase = Hexokinase (Trypanosoma brucei, UniProt Q38C41); assay: Confirmation assay for inhibitors of Trypanosoma brucei hexokinase 1-Analogue-first series. [Related pubchem assays (depositor defined):AID1430, AID1632, AID2516, AID2560, AID2579, AID2600, AID449725, AID492951]; format: functional
[23] = molecular target: Alkaline phosphatase, placental type (Homo sapiens, UniProt P05187); assay: human placental alkaline phosphatase inhibition – biochemical, luminescence, confirmation (AID 1512); format: functional
[24] = molecular target: Glyceraldehyde-3-phosphate dehydrogenase (Homo sapiens, UniProt P04406)

T2 sequence (Q01196 whole entry, the tested form may be a part): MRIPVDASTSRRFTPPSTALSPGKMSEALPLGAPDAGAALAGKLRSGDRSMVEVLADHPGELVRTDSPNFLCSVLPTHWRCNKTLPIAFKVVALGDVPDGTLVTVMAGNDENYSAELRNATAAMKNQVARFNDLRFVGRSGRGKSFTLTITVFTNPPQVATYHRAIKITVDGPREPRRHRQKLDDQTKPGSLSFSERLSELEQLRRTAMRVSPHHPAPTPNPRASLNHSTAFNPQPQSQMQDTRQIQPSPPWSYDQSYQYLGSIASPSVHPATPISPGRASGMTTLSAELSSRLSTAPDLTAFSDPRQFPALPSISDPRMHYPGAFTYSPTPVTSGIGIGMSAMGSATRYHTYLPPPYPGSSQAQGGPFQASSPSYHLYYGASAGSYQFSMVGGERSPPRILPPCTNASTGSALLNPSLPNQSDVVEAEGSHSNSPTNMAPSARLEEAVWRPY
T2 sequence (Q13951 whole entry, the tested form may be a part): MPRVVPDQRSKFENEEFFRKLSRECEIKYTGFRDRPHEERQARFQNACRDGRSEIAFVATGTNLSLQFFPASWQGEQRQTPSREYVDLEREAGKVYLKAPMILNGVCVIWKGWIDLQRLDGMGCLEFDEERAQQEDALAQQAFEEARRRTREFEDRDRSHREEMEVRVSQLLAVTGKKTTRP
T8 sequence (P21554 whole entry): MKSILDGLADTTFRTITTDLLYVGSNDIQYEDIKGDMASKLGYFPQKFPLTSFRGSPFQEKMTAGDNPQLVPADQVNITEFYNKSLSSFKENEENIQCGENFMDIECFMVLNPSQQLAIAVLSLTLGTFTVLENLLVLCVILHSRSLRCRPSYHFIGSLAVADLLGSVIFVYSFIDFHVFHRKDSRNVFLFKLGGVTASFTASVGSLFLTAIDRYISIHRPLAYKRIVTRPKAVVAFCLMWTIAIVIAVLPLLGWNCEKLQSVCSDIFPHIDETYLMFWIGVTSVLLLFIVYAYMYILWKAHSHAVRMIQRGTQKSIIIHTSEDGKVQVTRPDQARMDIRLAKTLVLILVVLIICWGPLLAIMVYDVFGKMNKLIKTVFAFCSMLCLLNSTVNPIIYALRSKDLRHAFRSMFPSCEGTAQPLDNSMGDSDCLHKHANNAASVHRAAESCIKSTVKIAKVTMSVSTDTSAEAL
T7 sequence (Q9HC97 whole entry): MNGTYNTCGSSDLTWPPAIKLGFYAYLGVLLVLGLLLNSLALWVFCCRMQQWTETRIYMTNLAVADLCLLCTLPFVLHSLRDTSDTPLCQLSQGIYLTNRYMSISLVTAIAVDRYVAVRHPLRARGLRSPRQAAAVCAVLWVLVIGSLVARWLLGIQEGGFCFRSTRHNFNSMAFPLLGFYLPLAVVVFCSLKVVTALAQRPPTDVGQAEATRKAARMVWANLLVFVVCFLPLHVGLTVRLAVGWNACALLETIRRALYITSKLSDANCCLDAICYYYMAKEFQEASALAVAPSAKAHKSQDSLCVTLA
T6 sequence (P34972 whole entry): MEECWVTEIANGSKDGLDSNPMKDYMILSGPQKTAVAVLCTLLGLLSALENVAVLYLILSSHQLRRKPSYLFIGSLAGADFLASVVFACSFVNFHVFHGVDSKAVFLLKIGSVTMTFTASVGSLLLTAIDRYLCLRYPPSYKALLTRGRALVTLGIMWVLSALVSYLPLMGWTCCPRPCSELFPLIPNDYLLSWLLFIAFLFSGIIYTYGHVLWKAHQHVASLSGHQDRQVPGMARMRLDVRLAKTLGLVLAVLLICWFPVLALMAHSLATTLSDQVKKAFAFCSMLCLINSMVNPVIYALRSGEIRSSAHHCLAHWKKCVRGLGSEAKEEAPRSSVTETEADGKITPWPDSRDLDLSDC
Hexokinase, sequence (Q38C41 whole entry): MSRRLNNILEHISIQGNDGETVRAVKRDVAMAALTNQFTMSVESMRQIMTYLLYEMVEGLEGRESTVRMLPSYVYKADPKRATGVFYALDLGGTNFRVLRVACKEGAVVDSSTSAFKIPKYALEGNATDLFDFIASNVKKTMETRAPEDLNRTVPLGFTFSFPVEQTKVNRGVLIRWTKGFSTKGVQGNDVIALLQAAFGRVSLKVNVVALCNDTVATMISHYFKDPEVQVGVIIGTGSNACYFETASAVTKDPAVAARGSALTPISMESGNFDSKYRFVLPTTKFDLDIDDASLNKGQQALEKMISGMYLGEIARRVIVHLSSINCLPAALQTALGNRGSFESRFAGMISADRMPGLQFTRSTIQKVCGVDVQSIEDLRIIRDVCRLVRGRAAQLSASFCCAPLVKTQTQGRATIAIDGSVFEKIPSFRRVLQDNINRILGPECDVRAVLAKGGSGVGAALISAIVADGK
Signal transducer and activator of transcription 1-alpha/beta, sequence (P42224 whole entry): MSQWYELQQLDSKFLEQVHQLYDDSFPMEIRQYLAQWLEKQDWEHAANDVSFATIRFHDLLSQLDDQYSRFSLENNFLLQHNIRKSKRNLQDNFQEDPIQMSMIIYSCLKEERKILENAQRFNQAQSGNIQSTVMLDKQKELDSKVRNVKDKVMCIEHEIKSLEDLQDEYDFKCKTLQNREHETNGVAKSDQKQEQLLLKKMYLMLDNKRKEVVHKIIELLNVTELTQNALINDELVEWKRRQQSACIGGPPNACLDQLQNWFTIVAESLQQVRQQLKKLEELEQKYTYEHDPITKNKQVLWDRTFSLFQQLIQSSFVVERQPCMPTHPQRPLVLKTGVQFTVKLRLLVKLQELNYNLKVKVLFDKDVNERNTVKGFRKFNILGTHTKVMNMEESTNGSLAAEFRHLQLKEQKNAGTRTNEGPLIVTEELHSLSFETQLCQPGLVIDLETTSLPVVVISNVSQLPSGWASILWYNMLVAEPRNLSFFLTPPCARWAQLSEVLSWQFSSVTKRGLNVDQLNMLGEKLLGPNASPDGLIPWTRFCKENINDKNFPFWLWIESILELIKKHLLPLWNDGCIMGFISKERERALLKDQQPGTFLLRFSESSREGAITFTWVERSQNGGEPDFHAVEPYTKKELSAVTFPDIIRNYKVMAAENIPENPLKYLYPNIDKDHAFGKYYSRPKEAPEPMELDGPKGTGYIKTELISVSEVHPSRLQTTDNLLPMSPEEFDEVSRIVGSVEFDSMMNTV
Alkaline phosphatase, placental type, sequence (P05187 whole entry): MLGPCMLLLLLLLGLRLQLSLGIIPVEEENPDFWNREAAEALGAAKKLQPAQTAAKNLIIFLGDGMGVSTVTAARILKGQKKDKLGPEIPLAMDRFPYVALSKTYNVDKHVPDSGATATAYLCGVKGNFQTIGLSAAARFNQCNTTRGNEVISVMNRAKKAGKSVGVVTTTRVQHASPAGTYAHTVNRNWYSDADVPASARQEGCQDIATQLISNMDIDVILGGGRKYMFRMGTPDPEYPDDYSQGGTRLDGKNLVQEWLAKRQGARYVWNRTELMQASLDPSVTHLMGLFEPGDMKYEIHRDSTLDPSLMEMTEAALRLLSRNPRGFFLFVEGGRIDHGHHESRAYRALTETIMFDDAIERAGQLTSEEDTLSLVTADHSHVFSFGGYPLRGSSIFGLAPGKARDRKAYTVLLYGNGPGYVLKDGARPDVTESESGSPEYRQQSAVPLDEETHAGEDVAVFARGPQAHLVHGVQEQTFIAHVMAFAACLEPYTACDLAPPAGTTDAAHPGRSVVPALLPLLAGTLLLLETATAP
Sphingosine 1-phosphate receptor 1, sequence (P21453 whole entry): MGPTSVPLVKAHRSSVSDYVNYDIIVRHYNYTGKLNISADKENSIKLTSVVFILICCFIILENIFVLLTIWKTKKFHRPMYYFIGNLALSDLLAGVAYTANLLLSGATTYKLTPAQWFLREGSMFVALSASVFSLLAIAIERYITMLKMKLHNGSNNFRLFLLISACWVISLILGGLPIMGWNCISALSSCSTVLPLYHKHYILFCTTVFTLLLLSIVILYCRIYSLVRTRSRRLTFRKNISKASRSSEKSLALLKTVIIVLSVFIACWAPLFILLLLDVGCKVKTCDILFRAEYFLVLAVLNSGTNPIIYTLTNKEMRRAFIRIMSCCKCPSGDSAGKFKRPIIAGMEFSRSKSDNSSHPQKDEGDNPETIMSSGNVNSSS
Signal transducer and activator of transcription 3, sequence (P40763 whole entry): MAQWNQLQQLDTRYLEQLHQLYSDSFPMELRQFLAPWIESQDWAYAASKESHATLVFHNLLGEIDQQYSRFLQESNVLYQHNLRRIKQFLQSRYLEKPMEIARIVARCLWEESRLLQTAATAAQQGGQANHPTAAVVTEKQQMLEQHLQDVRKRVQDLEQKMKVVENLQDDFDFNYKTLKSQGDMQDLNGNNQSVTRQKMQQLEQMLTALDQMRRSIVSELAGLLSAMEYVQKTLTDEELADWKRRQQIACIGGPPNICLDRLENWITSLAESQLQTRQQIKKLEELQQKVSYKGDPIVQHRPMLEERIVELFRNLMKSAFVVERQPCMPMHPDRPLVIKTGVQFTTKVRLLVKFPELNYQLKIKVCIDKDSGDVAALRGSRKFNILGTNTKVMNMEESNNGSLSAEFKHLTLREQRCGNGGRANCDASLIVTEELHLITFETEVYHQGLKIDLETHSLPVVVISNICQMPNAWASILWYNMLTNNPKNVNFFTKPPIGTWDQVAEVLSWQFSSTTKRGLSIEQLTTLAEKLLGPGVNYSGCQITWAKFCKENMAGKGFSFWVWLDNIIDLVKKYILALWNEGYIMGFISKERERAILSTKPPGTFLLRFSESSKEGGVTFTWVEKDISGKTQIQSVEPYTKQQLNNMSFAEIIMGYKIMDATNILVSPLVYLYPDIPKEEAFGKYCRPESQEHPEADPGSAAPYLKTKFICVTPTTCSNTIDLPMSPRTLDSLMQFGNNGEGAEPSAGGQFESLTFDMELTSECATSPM

## CCOC(=O)C1C(c2ccc3c(c2)OCO3)NC(=O)NC1(O)C(F)(F)F (centres undefined)
Mucolipin-3
  EC50: > 29.9 µM (not active)
Ion channel NompC
  EC50: > 29.9 µM (inactive)

## O=C1Nc2ccccc2C12Nc1ccccc1S2 (centres undefined)
[1]
  IC50: 8.95 µM (active)
[2]
  IC50: 28.2 µM (active)

## COC(=O)CSc1nc(N)c2c3c(sc2n1)C(c1ccccc1)SC(c1ccccc1)C3 (centres undefined)
BJ [3]
  EC50: > 150 µM (inconclusive)
[4]
  EC50: 14.2 µM (active)
[5]
  EC50: 11.4 µM (active)
[6]
  AC50: > 380 µM (inactive)
[7]
  EC50: 14.4 µM (active)
BJ [8]
  EC50: 8.88 µM (inconclusive)
CAAX prenyl protease 2
  AC50: 13.8 µM (active)
BJ [9]
  EC50: 17.1 µM (inconclusive)
Protein RecA
  EC50: > 380 µM (inactive)
[10]
  CC50: > 50 µM (active)

## CCOC(=O)c1c(-n2c(C)cc(/C=C3\C(=O)NC(=O)N(C)C3=O)c2C)sc2c1CCCC2
[11]
  EC50: > 49.8 µM (not active)
[12]
  EC50: > 49.8 µM (inactive)

## Cc1sc2ncnc(N3CCC(C(=O)c4ccccc4)CC3)c2c1C
[13]
  IC50: > 55.7 µM (inactive)
[14]
  IC50: 5.21 µM (active)

## Cc1ccc(OCC(=O)Nc2ccc(Cl)cc2F)c([N+](=O)[O-])n1
[15]
  EC50: > 50 µM (inactive)

## Cc1[nH]nc(-c2ccc(O)cc2O)c1-c1ccc(Br)cc1
Cannabinoid receptor 2 [16]
  IC50: 9.2 µM (active)
[17]
  EC50: > 32 µM (inactive)
Cannabinoid receptor 2 [18]
  EC50: > 32 µM (inactive)
[19]
  IC50: > 32 µM (inactive)
[20]
  IC50: 5.4 µM (active)
Cannabinoid receptor 1 [21]
  IC50: 0.981 µM (active)
Cannabinoid receptor 1 [22]
  EC50: > 32 µM (inactive)

## O=c1c2cccnc2sn1-c1ccccc1
Hexokinase
  IC50: 2.27 µM (active)

## CN(C)C(=O)c1cc(-c2cc(F)c(Cl)cc2Cl)n[nH]1
[23]
  IC50: > 100 µM (inactive)
[24]
  IC50: > 100 µM (not active)
